Results from PubChem BioAssay (NCI).
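Growth conditions: 96-well plates. Treatment: test compound, 48 hours, 5 concentrations. Analysis: linear interpolation between bracketing concentrations; unreached endpoints set to highest concentration. GI50 marks 50% less growth. TGI: total growth inhibition.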

Key:
Assay in all cases: NCI-60 cell line screen, 48 h; in the data active means GI50 below about 0.43 µM; inactive means the rest
[1] = tested on: 786-0 renal
[2] = tested on: A498 renal
[3] = tested on: A549 NSCLC
[4] = tested on: ACHN renal
[5] = tested on: BT-549 breast
[6] = tested on: CAKI-1 renal
[7] = tested on: CCRF-CEM leukemia
[8] = tested on: COLO 205 colon
[9] = tested on: DU-145 prostate
[10] = tested on: EKVX NSCLC
[11] = tested on: HCC-2998 colon
[12] = tested on: HCT-116 colon
[13] = tested on: HCT-15 colon
[14] = tested on: HL-60(TB) leukemia
[15] = tested on: HOP-62 NSCLC
[16] = tested on: HOP-92 NSCLC
[17] = tested on: HS 578T breast
[18] = tested on: HT29 colon
[19] = tested on: IGROV1 ovarian
[20] = tested on: K-562 leukemia
[21] = tested on: KM12 colon
[22] = tested on: LOX IMVI melanoma
[23] = tested on: M14 melanoma
[24] = tested on: MALME-3M melanoma
[25] = tested on: MCF7 breast
[26] = tested on: MDA-MB-231 breast
[27] = tested on: MDA-MB-435
[28] = tested on: MOLT-4 leukemia
[29] = tested on: NCI-H226 lung
[30] = tested on: NCI-H23 lung
[31] = tested on: NCI-H460 lung
[32] = tested on: NCI-H522 lung
[33] = tested on: NCI/ADR-RES ovarian
[34] = tested on: OVCAR-3 ovarian
[35] = tested on: OVCAR-4 ovarian
[36] = tested on: OVCAR-5 ovarian
[37] = tested on: OVCAR-8 ovarian
[38] = tested on: PC-3 prostate
[39] = tested on: RPMI-8226 leukemia
[40] = tested on: RXF 393 renal
[41] = tested on: SF-268 CNS
[42] = tested on: SF-295 CNS
[43] = tested on: SF-539 CNS
[44] = tested on: SK-MEL-2 melanoma
[45] = tested on: SK-MEL-28 melanoma
[46] = tested on: SK-MEL-5 melanoma
[47] = tested on: SK-OV-3 ovarian
[48] = tested on: SN12C renal
[49] = tested on: SNB-19 CNS
[50] = tested on: SNB-75 CNS
[51] = tested on: SR leukemia
[52] = tested on: SW-620 colon
[53] = tested on: T-47D breast
[54] = tested on: TK-10 renal
[55] = tested on: U251 CNS
[56] = tested on: UACC-257 melanoma
[57] = tested on: UACC-62 melanoma
[58] = tested on: UO-31 renal

CC(=O)NCc1cccc(C#Cc2cncnc2Nc2ccc(OCc3cccc(F)c3)c(Cl)c2)c1
> 20.2 µM: TGI [54]
> 21.1 µM: TGI [58]
> 23.7 µM: TGI [6]
> 14.8 µM: TGI [10]
> 22.4 µM: TGI [32]
24.8 µM: TGI [2]
> 22.5 µM: TGI [14]
> 25 µM: TGI [1] | TGI [3] | TGI [4] | TGI [5] | TGI [7] | TGI [8] | TGI [9] | TGI [11] | TGI [12] | TGI [13] | TGI [15] | TGI [16] | TGI [17] | TGI [18] | TGI [19] | TGI [20] | TGI [21] | TGI [22] | TGI [23] | TGI [24] | TGI [25] | TGI [26] | TGI [27] | TGI [28] | TGI [29] | TGI [30] | TGI [31] | TGI [33] | TGI [34] | TGI [35] | TGI [36] | TGI [37] | TGI [38] | TGI [39] | TGI [40] | TGI [41] | TGI [42] | TGI [43] | TGI [44] | TGI [45] | TGI [46] | TGI [47] | TGI [48] | TGI [49] | TGI [50] | TGI [51] | TGI [52] | TGI [53] | TGI [55] | TGI [56] | TGI [57]
inactive: GI50 [1] 10.7 µM | GI50 [2] 3.52 µM | GI50 [3] 6.47 µM | GI50 [4] 5.84 µM | GI50 [5] 13.5 µM | GI50 [6] 2.04 µM | GI50 [7] 13.4 µM | GI50 [8] > 16.7 µM | GI50 [9] 10.1 µM | GI50 [10] 1.46 µM | GI50 [11] 9.04 µM | GI50 [12] 9.05 µM | GI50 [13] 8.31 µM | GI50 [14] 7.76 µM | GI50 [15] > 25 µM | GI50 [16] 5.66 µM | GI50 [17] > 22.4 µM | GI50 [18] 9.19 µM | GI50 [19] 5.51 µM | GI50 [20] 10.1 µM | GI50 [21] 11.1 µM | GI50 [22] 9.44 µM | GI50 [23] 14.1 µM | GI50 [24] 19.4 µM | GI50 [25] 9.18 µM | GI50 [26] > 25 µM | GI50 [27] 8.41 µM | GI50 [28] 7.42 µM | GI50 [29] > 21.1 µM | GI50 [30] 14.1 µM | GI50 [31] 10.6 µM | GI50 [32] 6.55 µM | GI50 [33] 7.76 µM | GI50 [34] 11.6 µM | GI50 [35] 12.9 µM | GI50 [36] 9.13 µM | GI50 [37] 9.58 µM | GI50 [38] 8.37 µM | GI50 [39] 15.4 µM | GI50 [40] 13 µM | GI50 [41] 16.7 µM | GI50 [42] 8.02 µM | GI50 [43] > 21.1 µM | GI50 [44] 11.8 µM | GI50 [45] 19.8 µM | GI50 [46] 9.44 µM | GI50 [47] > 12.9 µM | GI50 [48] 10.6 µM | GI50 [49] > 21.8 µM | GI50 [50] > 21 µM | GI50 [51] > 25 µM | GI50 [52] 18.3 µM | GI50 [53] 9.68 µM | GI50 [54] 1.97 µM | GI50 [55] 11 µM | GI50 [56] 12.3 µM | GI50 [57] 9.87 µM | GI50 [58] 3.25 µM
